Patent publication US11111238B2, “Coumarin derivatives, processes for their preparation and uses thereof for the treatment of cancer” (Lead Discovery Center GmbH, priority 2017, dated 2021)
pIC50: −log10 of the molar value.

Columns and labels:
NCI-H1299 (lung) = assay: CellTiter GLO viability assay, NCI-H1299; format: cell-based; details: Homo sapiens, 144 h, read-out: IC50 (μM) incubation time 144 h
Method: (§1) The CellTiter-Glo Luminescent Cell Viability Assay (Promega) is a homogeneous method of determining the number of viable cells in culture. It is based on quantification of ATP, indicating the presence of metabolically active cells.
(§2) Cells were seeded on day 1 at cell numbers that assure assay linearity and optimal signal intensity. After incubation for 3 h in humidified chambers at 37° C./5% CO2 compounds/DMSO were added at different concentrations. […] Cells treated with the compound vehicle DMSO were used as positive controls and cells treated with 10 μM Staurosporine served as negative controls. […] Thereon, mixture and assay plates were equilibrated at room temperature for 20 min. Equal volumes of the reagent-medium-mixture was added to the volume of culture medium present in each well.
(§3) The plates were mixed at ˜200 rpm for 2 minutes on an orbital shaker. The microplates were then incubated at room temperature for 10 minutes for stabilization of the luminescent signal. Following incubation the luminescence is recorded on a Victor microplate reader (Perkin Elmer) using 200 ms integration time. The data were then analyzed with Excel using the XLFIT Plugin (dose response Fit 205) for IC50-determination. As quality control the Z′-factor was calculated from 16 positive and negative control values. Only assay results showing a Z′-factor≥0.5 were used for further analysis.

NCI-H23 (lung) = assay: CellTiter GLO viability assay, NCI-H23; format: cell-based; details: for IC50: Homo sapiens, NCI-H23 (lung), 144 h, read-out: IC50 (μM) incubation time 144 h; for sensitivity of the cell line (in words): NCl-H23
Method: as §1, §2, §3

SW48 (colon) = assay: CellTiter GLO viability assay, SW48; format: cell-based; details: Homo sapiens, 144 h, read-out: IC50 (μM) incubation time 144 h
Method: as §1, §2, §3

SW948 (colon) = assay: CellTiter GLO viability assay, SW948; format: cell-based; details: Homo sapiens, 144 h, read-out: IC50 (μM) incubation time 144 h
Method: as §1, §2, §3

[1] = system: mitochondrial transcription (7S RNA) in HeLa cells; assay: Quantitative real time-PCR assay of inhibition of mitochondrial transcription (cellular qPCR assay IMT); format: cell-based; details: Homo sapiens, 4 h compound incubation, qRT-PCR according to Example 5, activity class
Method in brief: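 HeLa cells were exposed 4 h to compound dilution series or DMSO. Mitochondrial 7S RNA, with POLRMT for nuclear transcription, was measured by TaqMan qRT-PCR, normalised to TBP. Biological triplicates were analysed by ΔΔCt and expressed as Rq % (2^-ΔΔCt).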

NCI-H596 (lung) = assay: CellTiter GLO viability assay, NCI-H596; format: cell-based; details: Homo sapiens, 144 h, read-out: IC50 (μM) incubation time 144 h
Method: as §1, §2, §3

HRT-18 (colon) = assay: CellTiter GLO viability assay, HRT-18; format: cell-based; details: Homo sapiens, 144 h, read-out: IC50 (μM) incubation time 144 h
Method: as §1, §2, §3

CA-46 (lymphoma) = assay: CellTiter GLO viability assay, CA-46; format: cell-based; details: Homo sapiens, CA46, 144 h, read-out: IC50 (μM) incubation time 144 h
Method: as §1
as §2, with “Cells were seeded on day 1 at cell numbers that assure assay linearity and optimal signal intensity.” left out
as §3

[2] = target: mitochondrial RNA-polymerase (POLRMT) (Mus musculus, UniProt Q8BKF1); assay: Homogeneous TR-FRET assay for mitochondrial transcription activity; format: biochemical; details: homogeneous TR-FRET assay according to Example 4; activity class
Method in brief: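 TR-FRET read-out (340 nm excitation, 665 nm emission) of a 407 bp transcript captured by Eu-streptavidin/biotin donor and ATTO647N acceptor DNA probes after EDTA stop. Transcription ran 2 h at RT with 500 μM […], mouse POLRMT/TFAM/TFB2M and LSP-plasmid template, after 10 min compound preincubation (10 μM or dilution series).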

HEC-59 (endometrial) = assay: CellTiter GLO viability assay, HEC-59; format: cell-based; details: 144 h, read-out: IC50 (μM) incubation time 144 h
Method: as §1, §2, §3

SW403 (colon) = assay: CellTiter GLO viability assay, SW403; format: cell-based; details: Homo sapiens, SW-403, 144 h, read-out: IC50 (μM) incubation time 144 h
Method: as §1
as §2, with “Cells were seeded on day 1 at cell numbers that assure assay linearity and optimal signal intensity.” left out
as §3

[3] = system: human DLD-1 colon carcinoma xenograft; assay: Therapeutic effect on human DLD-1 colon carcinoma xenograft in nude mice; details: 30 mg/kg p.o. QD × 28 days, positive control
Method: DLD-1 colon carcinoma cells (5×10^6 cells in 100 μL of PBS/Matrigel), isolated during exponential growth phase from in vitro cell culture, were transplanted s.c. into each female BALB/c nude mouse at day 0. Mice were kept under strictly controlled and standardized barrier conditions in IVC.
Sorafenib) (Nexavar®, which is an approved multi-kinase inhibitor/cytostatic from Bayer A G, was used as a positive control. Body weight and tumor volume (TV) were monitored two to three times per week.
Mice of groups 3, 4 and 5 were treated again at the end of the study period and blood samples were taken to generate plasma 1 h prior and 1 h post treatment. In addition, tumor and tissue samples were isolated, divided into two parts and snap frozen in liquid nitrogen. Mice of groups 1-5 were sacrificed at day 39. Gross autopsy was performed from all mice.

Chain of mitochondrial RNA-polymerase (POLRMT) (Q8BKF1 42-1207): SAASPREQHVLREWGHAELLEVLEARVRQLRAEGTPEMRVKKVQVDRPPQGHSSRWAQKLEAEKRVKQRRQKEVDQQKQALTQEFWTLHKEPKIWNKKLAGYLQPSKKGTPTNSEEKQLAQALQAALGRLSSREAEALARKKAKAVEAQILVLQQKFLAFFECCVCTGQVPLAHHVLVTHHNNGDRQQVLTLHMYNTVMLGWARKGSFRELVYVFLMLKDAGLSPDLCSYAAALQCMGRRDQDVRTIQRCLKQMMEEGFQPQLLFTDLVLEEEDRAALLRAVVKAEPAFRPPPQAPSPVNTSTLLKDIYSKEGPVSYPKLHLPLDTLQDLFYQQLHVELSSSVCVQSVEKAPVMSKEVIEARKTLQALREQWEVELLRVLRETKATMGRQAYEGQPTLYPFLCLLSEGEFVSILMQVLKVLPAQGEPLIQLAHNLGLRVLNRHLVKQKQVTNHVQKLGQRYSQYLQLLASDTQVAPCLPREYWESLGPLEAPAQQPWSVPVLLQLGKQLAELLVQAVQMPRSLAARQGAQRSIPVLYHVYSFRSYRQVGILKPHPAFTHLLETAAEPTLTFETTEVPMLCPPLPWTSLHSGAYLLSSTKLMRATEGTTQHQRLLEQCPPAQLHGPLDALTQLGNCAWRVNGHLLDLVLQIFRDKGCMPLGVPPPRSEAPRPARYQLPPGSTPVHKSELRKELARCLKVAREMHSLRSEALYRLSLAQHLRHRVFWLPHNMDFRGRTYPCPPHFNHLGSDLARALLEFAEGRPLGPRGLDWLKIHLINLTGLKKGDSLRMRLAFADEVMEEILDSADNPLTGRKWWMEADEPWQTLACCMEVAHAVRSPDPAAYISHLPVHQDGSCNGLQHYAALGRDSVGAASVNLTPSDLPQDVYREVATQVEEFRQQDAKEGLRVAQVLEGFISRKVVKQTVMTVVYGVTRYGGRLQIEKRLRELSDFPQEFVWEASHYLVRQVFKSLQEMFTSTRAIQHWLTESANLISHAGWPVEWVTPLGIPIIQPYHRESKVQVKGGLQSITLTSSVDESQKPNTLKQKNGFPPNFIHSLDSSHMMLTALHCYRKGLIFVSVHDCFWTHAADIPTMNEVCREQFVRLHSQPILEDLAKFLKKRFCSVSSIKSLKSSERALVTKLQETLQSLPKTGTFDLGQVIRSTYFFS

Compound	pIC50 [1]	pIC50 [2]	other results
Cc1ccccc1-c1cc(=O)oc2cc(OC(C)C(=O)N(C)C)ccc12 (stereo not shown) [Compound 38, N,N-dimethyl-2-[4-(o-tolyl)-2-oxo-chromen-7-yl]oxy-propanamide]	> 8.00	> 7.70	IC50 (NCI-H1299 (lung)): 0.1 to 1 µM; IC50 (NCI-H23 (lung)): 1 to 10 µM; sensitivity of the cell line (in words) (NCI-H23 (lung)): moderate sensitivity; IC50 (SW48 (colon)): 1 to 10 µM; IC50 (SW948 (colon)): 0.1 to 1 µM; IC50 (NCI-H596 (lung)): 1 to 10 µM; IC50 (HRT-18 (colon)): ≤ 0.1 µM; IC50 (CA-46 (lymphoma)): 0.1 to 1 µM; IC50 (HEC-59 (endometrial)): > 10 µM; IC50 (SW403 (colon)): 0.1 to 1 µM
CC(Oc1ccc2c(-c3ccc(F)cc3Cl)cc(=O)oc2c1)C(=O)N1CCC[C@H](C(=O)O)C1 (stereo partly drawn) [Compound 47, (3S)-1-(2-((4-(2-chloro-4-fluorophenyl)-2-oxo-2H-chromen-7-yl)oxy)propanoyl)piperidine-3-carboxylic acid]	> 8.00	> 7.70	IC50 (NCI-H1299 (lung)): 0.1 to 1 µM; IC50 (NCI-H23 (lung)): > 10 µM; sensitivity of the cell line (in words) (NCI-H23 (lung)): resistant; IC50 (SW48 (colon)): 0.1 to 1 µM; IC50 (SW948 (colon)): 0.1 to 1 µM; IC50 (NCI-H596 (lung)): 1 to 10 µM; IC50 (HRT-18 (colon)): ≤ 0.1 µM; IC50 (CA-46 (lymphoma)): 0.1 to 1 µM; IC50 (HEC-59 (endometrial)): > 10 µM; IC50 (SW403 (colon)): 0.1 to 1 µM
Cc1ccsc1-c1cc(=O)oc2cc(O[C@H](C)C(=O)N3CCCCC3)ccc12 [Compound 177, 7-[(1R)-1-methyl-2-oxo-2-(1-piperidyl)ethoxy]-4-(3-methyl-2-thienyl)chromen-2-one]	> 8.00	7.00 to 7.70	
Cc1ccsc1-c1cc(=O)oc2cc(O[C@H](C)C(=O)NC(C)C)ccc12 [Compound 178, (2R)-N-isopropyl-2-[4-(3-methyl-2-thienyl)-2-oxo-chromen-7-yl]oxy-propanamide]	7.30 to 8.00	6.00 to 7.00	
Cc1ccsc1-c1cc(=O)oc2cc(O[C@H](C)C(=O)N(C)C)ccc12 [Compound 179, (2R)-N,N-dimethyl-2-[4-(3-methyl-2-thienyl)-2-oxo-chromen-7-yl]oxy-propanamide]	7.30 to 8.00	6.00 to 7.00	
CCOC(=O)C[C@H]1CCCN(C(=O)[C@@H](C)Oc2ccc3c(-c4sccc4C)cc(=O)oc3c2)C1 [Compound 180, ethyl 2-[(3R)-1-[(2R)-2-[4-(3-methyl-2-thienyl)-2-oxo-chromen-7-yl]oxypropanoyl]-3-piperidyl]acetate]	> 8.00	7.00 to 7.70	
Cc1cscc1-c1cc(=O)oc2cc(O[C@H](C)C(=O)N3CCCCC3)ccc12 [Compound 183, 7-[(1R)-1-methyl-2-oxo-2-(1-piperidyl)ethoxy]-4-(4-methyl-3-thienyl)chromen-2-one]	> 8.00	> 7.70	
CNC(=O)c1cc(Oc2ccc(NC(=O)Nc3ccc(Cl)c(C(F)(F)F)c3)cc2)ccn1 [Sorafenib, reference compound]			body weight loss [3]: severe body weight loss

More lines, main results first:

pIC50 [1]	pIC50 [2]	Compound	other results
6.30 to 7.30	7.00 to 7.70	C[C@@H](Oc1ccc2c(-c3ccc(F)cc3Cl)cc(=O)oc2n1)C(=O)N1CCC[C@H](C(=O)O)C1 [Compound 173, (3S)-1-[(2R)-2-[4-(2-chloro-4-fluoro-phenyl)-2-oxo-pyrano[2,3-b]pyridin-7-yl]oxypropanoyl]piperidine-3-carboxylic acid]	
> 8.00	7.00 to 7.70	Cc1ccsc1-c1cc(=O)oc2cc(O[C@H](C)C(=O)N3CCC[C@H](C(=O)O)C3)ccc12 [Compound 174, (3S)-1-[(2R)-2-[4-(3-methyl-2-thienyl)-2-oxo-chromen-7-yl]oxypropanoyl]piperidine-3-carboxylic acid]	
7.30 to 8.00	7.00 to 7.70	Cc1ccsc1-c1cc(=O)oc2cc(O[C@H](C)C(=O)N3CCC[C@H](CC(=O)O)C3)ccc12 [Compound 181, 2-[(3R)-1-[(2R)-2-[4-(3-methyl-2-thienyl)-2-oxo-chromen-7-yl]oxypropanoyl]-3-piperidyl]acetic acid]	
> 8.00	> 7.70	Cc1cscc1-c1cc(=O)oc2cc(O[C@H](C)C(=O)N3CCC[C@H](C(=O)O)C3)ccc12 [Compound 182, (3S)-1-[(2R)-2-[4-(4-methyl-3-thienyl)-2-oxo-chromen-7-yl]oxypropanoyl]piperidine-3-carboxylic acid]	
